What was measured:
[1] = Phase 1 open-label 2-sequence crossover single-dose pharmacokinetic study of deutetrabenazine metabolites; type: in vivo, human (healthy male and female subjects); conditions: share of total DHTBZ exposure after single dose deutetrabenazine 24 mg, healthy subjects
Description: A phase 1, open-label, 2-sequence crossover study was conducted to evaluate the HTBZ PK profile following administration of valbenazine (40 mg) or deutetrabenazine (24 mg) to a total of 18 healthy male and female subjects. Subjects received a single dose of valbenazine 40 mg on Day 1 and a single dose of deutetrabenazine 24 mg on Day 16; or received a single dose of deutetrabenazine 24 mg on Day 1 and a single dose of valbenazine 40 mg on Day 16. Valbenazine 40 mg was administered as one 40 mg capsule and deutetrabenazine 24 mg was administered as two 12 mg tablets. Study drug was administered at approximately 0800 hours, approximately 30 minutes after the start of a standard breakfast. […] PK parameters were determined using non-compartmental analysis with Phoenix WinNonlin 8.3 software. The in vitro pharmacology of the deuterated HTBZ metabolites was assessed using competitive radioligand binding assays.

[2] = paroxetine 20 mg daily for 8 days, then single 22.5 mg dose of deutetrabenazine; 24 healthy subjects; cited from earlier work

AUC (% of Total) [1]	SMILES	increase in mean half-life in the presence of paroxetine [2]
2%	[2H]C([2H])([2H])Oc1cc2c(cc1OC([2H])([2H])[2H])[C@H]1C[C@@H](O)[C@H](CC(C)C)CN1CC2 [[+]-α-DHTBZ]	
29%	[2H]C([2H])([2H])Oc1cc2c(cc1OC([2H])([2H])[2H])[C@H]1C[C@H](O)[C@H](CC(C)C)CN1CC2 [[+]-β-DHTBZ, (+)-β-3-isobutyl-9,10-di(methoxy-d3)-1,3,4,6,7,11b-hexahydro-2H-pyrido[2,1-a]isoquinolin-2-ol]	
66%	[2H]C([2H])([2H])Oc1cc2c(cc1OC([2H])([2H])[2H])[C@@H]1C[C@H](O)[C@@H](CC(C)C)CN1CC2 [[−]-α-DHTBZ, (−)-α-3-isobutyl-9,10-di(methoxy-d3)-1,3,4,6,7,11b-hexahydro-2H-pyrido[2,1-a]isoquinolin-2-ol]	
3%	[2H]C([2H])([2H])Oc1cc2c(cc1OC([2H])([2H])[2H])[C@@H]1C[C@@H](O)[C@@H](CC(C)C)CN1CC2 [[−]-β-DHTBZ, (−) -β-3-isobutyl-9,10-di(methoxy-d3)-1,3,4,6,7,11b-hexahydro-2H-pyrido[2,1-a]isoquinolin-2-ol]	
	COc1cc2c(cc1OC)[C@@H]1C[C@H](O)[C@@H](CC(C)C)CN1CC2 [α-DHTBZ]	approximately 1.5 fold

— patent US20240207247A1, “METHODS FOR THE COMBINED ADMINISTRATION OF DEUTETRABENAZINE AND A CYP2D6 INHIBITOR” (Neurocrine Biosciences, Inc., priority 2021, published 2024)
